Results taken from US20140371074A1, “METHOD TO INCREASE PLANT YIELD” (priority 2012, published 2014).

Tests used:
[1] = test system: soybean cultivars L2084R2, L2711R2X; test: Field 2012: 2,4-D Low Vol 4 + crop oil drizzled onto soil at R1 stage, Alexander, Iowa (Table 2a); assay type: in vivo
Procedure: Plants were treated by drizzling via low pressure spraying the 2,4-D solution onto the soil along each side of the rows when plants are at the R1 stage of growth. The date of planting was May 15, 2012 and the date of harvest was Oct. 2, 2012 at plots in Alexander, Iowa (Table 2a) and Laurel, Iowa (Table 2b). Plants were grown from Roundup Ready seed and were sprayed with glyphosate for weed control. Plants were treated with between 1X and 5.5X of 2,4-D solution mixed with crop oil at 15.3 ounces of 2,4-D Low Vol 4 plus 0.32 ounces crop oil per gallon, where 1X is equivalent to approximately 0.45 pounds acid equivalent of 2,4-D. Two repetitions were performed at different plots. […] The moisture percentages were used in correcting each yield to a 13% moisture basis.

[2] = test system: soybean variety Asgrow 2933; test: Field: side dress with 2,4-D Low Vol 4 solution, Laurel, Iowa (Table 3); assay type: in vivo; details: for Percent of control: yield vs untreated control
Procedure: Plants were grown from Roundup Ready variety Asgrow 2933 seed that was treated with accelron (Monsanto) prior to planting. Plants were side dressed by application with a 3-point cultivator modified to spray on the ground in front of the shanks, the shanks then mix the 2,4-D mixture with the soil and move the mixture closer to the plant roots. Plants were treated with between 1X and 4X of 2,4-D Low Vol 4 solution, where 1X is equivalent to approximately 0.19 pounds acid equivalent of 2,4-D. Plants were grown with a row width of 30 inches and row length of 562 feet.

[3] = 1.0X Rate, L2084R2, 1X~0.45 lb a.e.
[4] = 1.0X Rate, L2711R2X, 1X~0.45 lb a.e.
[5] = 1.5X Rate, L2084R2, 1X~0.45 lb a.e.
[6] = 1.5X Rate, L2711R2X, 1X~0.45 lb a.e.
[7] = 2.0X Rate, L2084R2, 1X~0.45 lb a.e.
[8] = 2.0X Rate, L2711R2X, 1X~0.45 lb a.e.
[9] = 2.5X Rate, L2084R2, 1X~0.45 lb a.e.
[10] = 2.5X Rate, L2711R2X, 1X~0.45 lb a.e.
[11] = 3.0X Rate, L2084R2, 1X~0.45 lb a.e.
[12] = 3.0X Rate, L2711R2X, 1X~0.45 lb a.e.
[13] = 3.5X Rate, L2084R2, 1X~0.45 lb a.e.
[14] = 3.5X Rate, L2711R2X, 1X~0.45 lb a.e.
[15] = 4.0X Rate, L2084R2, 1X~0.45 lb a.e.
[16] = 4.0X Rate, L2711R2X, 1X~0.45 lb a.e.
[17] = 4.5X Rate, L2084R2, 1X~0.45 lb a.e.
[18] = 4.5X Rate, L2711R2X, 1X~0.45 lb a.e.
[19] = 5.0X Rate, L2084R2, 1X~0.45 lb a.e.
[20] = 5.0X Rate, L2711R2X, 1X~0.45 lb a.e.
[21] = 5.5X Rate, L2084R2, 1X~0.45 lb a.e.
[22] = 5.5X Rate, L2711R2X, 1X~0.45 lb a.e.
[23] = Average over 1.0X-3.0X Rates, L2084R2
[24] = Average over 1.0X-3.0X Rates, L2711R2X
[25] = Average over 1.0X-5.5X Rates, L2084R2
[26] = Average over 1.0X-5.5X Rates, L2711R2X
[27] = Overall location average, all rates, both cultivars
[28] = 1X side dress (1X~0.19 lb a.e.)
[29] = 2X side dress (1X~0.19 lb a.e.)
[30] = 3X side dress (1X~0.19 lb a.e.)
[31] = 4X side dress (1X~0.19 lb a.e.)

For O=C(O)COc1ccc(Cl)cc1Cl [2,4-D, 2,4-Dichlorophenoxyacetic acid], the “Average Yield” value [1, 3] was 47.77 Bu/A, the “Repetition 1 Weight” value [1, 3] was 4.3 Lbs and the “Repetition 1 Yield” value [1, 3] was 49.06 Bu/A. For the same compound, the “Repetition 2 Weight” value [1, 3] was 4.1 Lbs, the “Repetition 2 Yield” value [1, 3] was 46.48 Bu/A and the “Average Yield” value [1, 4] was 46.66 Bu/A. The “Repetition 1 Weight” value [1, 4] was 3.7 Lbs, the “Repetition 1 Yield” value [1, 4] was 42.30 Bu/A and the “Repetition 2 Weight” value [1, 4] was 4.5 Lbs. For the same compound, the “Repetition 2 Yield” value [1, 4] was 51.02 Bu/A, the “Average Yield” value [1, 5] was 47.65 Bu/A and the “Repetition 1 Weight” value [1, 5] was 3.4 Lbs. The “Repetition 1 Yield” value [1, 5] was 38.79 Bu/A, the “Repetition 2 Weight” value [1, 5] was 5 Lbs and the “Repetition 2 Yield” value [1, 5] was 56.51 Bu/A. The “Average Yield” value [1, 6] was 52.85 Bu/A, the “Repetition 1 Weight” value [1, 6] was 3.9 Lbs and the “Repetition 1 Yield” value [1, 6] was 44.54 Bu/A. The “Repetition 2 Weight” value [1, 6] was 5.4 Lbs, the “Repetition 2 Yield” value [1, 6] was 61.16 Bu/A and the “Average Yield” value [1, 7] was 51.64 Bu/A. The “Repetition 1 Weight” value [1, 7] was 4.5 Lbs, the “Repetition 1 Yield” value [1, 7] was 51.23 Bu/A and the “Repetition 2 Weight” value [1, 7] was 4.6 Lbs. For the same compound, the “Repetition 2 Yield” value [1, 7] was 52.04 Bu/A, the “Repetition 2 Weight” value [1, 8] was 4.1 Lbs and the “Repetition 2 Yield” value [1, 8] was 46.43 Bu/A. The “Average Yield” value ([1]; 2.0X Rate, L2711R2X, 1X~0.45 lb a.e., repetition 2 only) was 46.43 Bu/A, the “Average Yield” value [1, 9] was 38.59 Bu/A and the “Repetition 1 Weight” value [1, 9] was 3.1 Lbs. The “Repetition 1 Yield” value [1, 9] was 35.37 Bu/A, the “Repetition 2 Weight” value [1, 9] was 3.7 Lbs and the “Repetition 2 Yield” value [1, 9] was 41.81 Bu/A. For the same compound, the “Average Yield” value [1, 10] was 39.75 Bu/A, the “Repetition 1 Weight” value [1, 10] was 3.1 Lbs and the “Repetition 1 Yield” value [1, 10] was 35.29 Bu/A. The “Repetition 2 Weight” value [1, 10] was 3.9 Lbs, the “Repetition 2 Yield” value [1, 10] was 44.21 Bu/A and the “Average Yield” value [1, 11] was 43.14 Bu/A. The “Repetition 1 Weight” value [1, 11] was 3.5 Lbs, the “Repetition 1 Yield” value [1, 11] was 39.89 Bu/A and the “Repetition 2 Weight” value [1, 11] was 4.1 Lbs. For the same compound, the “Repetition 2 Yield” value [1, 11] was 46.38 Bu/A, the “Average Yield” value [1, 12] was 45.36 Bu/A and the “Repetition 1 Weight” value [1, 12] was 3.7 Lbs. The “Repetition 1 Yield” value [1, 12] was 42.08 Bu/A, the “Repetition 2 Weight” value [1, 12] was 4.3 Lbs and the “Repetition 2 Yield” value [1, 12] was 48.65 Bu/A. The “Repetition 1 Weight” value [1, 13] was 3.4 Lbs, the “Repetition 1 Yield” value [1, 13] was 38.55 Bu/A and the “Average Yield” value ([1]; 3.5X Rate, L2084R2, 1X~0.45 lb a.e., repetition 1 only) was 38.55 Bu/A. The “Repetition 1 Weight” value [1, 14] was 4.2 Lbs, the “Repetition 1 Yield” value [1, 14] was 47.77 Bu/A and the “Average Yield” value ([1]; 3.5X Rate, L2711R2X, 1X~0.45 lb a.e., repetition 1 only) was 47.77 Bu/A. For the same compound, the “Repetition 1 Weight” value [1, 15] was 4.5 Lbs, the “Repetition 1 Yield” value [1, 15] was 51.07 Bu/A and the “Average Yield” value ([1]; 4.0X Rate, L2084R2, 1X~0.45 lb a.e., repetition 1 only) was 51.07 Bu/A. For the same compound, the “Repetition 1 Weight” value [1, 16] was 5.4 Lbs, the “Repetition 1 Yield” value [1, 16] was 61.28 Bu/A and the “Average Yield” value ([1]; 4.0X Rate, L2711R2X, 1X~0.45 lb a.e., repetition 1 only) was 61.28 Bu/A. For the same compound, the “Repetition 1 Weight” value [1, 17] was 4.7 Lbs, the “Repetition 1 Yield” value [1, 17] was 53.28 Bu/A and the “Average Yield” value ([1]; 4.5X Rate, L2084R2, 1X~0.45 lb a.e., repetition 1 only) was 53.28 Bu/A. The “Repetition 1 Weight” value [1, 18] was 4.7 Lbs, the “Repetition 1 Yield” value [1, 18] was 53.40 Bu/A and the “Average Yield” value ([1]; 4.5X Rate, L2711R2X, 1X~0.45 lb a.e., repetition 1 only) was 53.40 Bu/A. The “Repetition 1 Weight” value [1, 19] was 4.1 Lbs, the “Repetition 1 Yield” value [1, 19] was 46.58 Bu/A and the “Average Yield” value ([1]; 5.0X Rate, L2084R2, 1X~0.45 lb a.e., repetition 1 only) was 46.58 Bu/A. For the same compound, the “Repetition 1 Weight” value [1, 20] was 4.3 Lbs, the “Repetition 1 Yield” value [1, 20] was 48.90 Bu/A and the “Average Yield” value ([1]; 5.0X Rate, L2711R2X, 1X~0.45 lb a.e., repetition 1 only) was 48.90 Bu/A. The “Repetition 1 Weight” value [1, 21] was 4.2 Lbs, the “Repetition 1 Yield” value [1, 21] was 47.67 Bu/A and the “Average Yield” value ([1]; 5.5X Rate, L2084R2, 1X~0.45 lb a.e., repetition 1 only) was 47.67 Bu/A. The “Repetition 1 Weight” value [1, 22] was 4.1 Lbs, the “Repetition 1 Yield” value [1, 22] was 46.48 Bu/A and the “Average Yield” value ([1]; 5.5X Rate, L2711R2X, 1X~0.45 lb a.e., repetition 1 only) was 46.48 Bu/A. For the same compound, the “Repetition 2 Weight” value [1, 23] was 4.3 Lbs, the “Repetition 2 Yield” value [1, 23] was 48.65 Bu/A and the “Repetition 2 Weight” value [1, 24] was 4.4 Lbs. For the same compound, the “Repetition 2 Yield” value [1, 24] was 50.29 Bu/A, the “Average Yield” value [1, 25] was 46.59 Bu/A and the “Repetition 1 Weight” value [1, 25] was 4.0 Lbs. The “Repetition 1 Yield” value [1, 25] was 45.15 Bu/A, the “Average Yield” value [1, 26] was 48.89 Bu/A and the “Repetition 1 Weight” value [1, 26] was 4.1 Lbs. The “Repetition 1 Yield” value [1, 26] was 46.89 Bu/A, the “Average Yield” value [1, 27] was 47.74 Bu/A and the “Repetition 1 Weight” value [1, 27] was 4.0 Lbs. The “Repetition 1 Yield” value [1, 27] was 45.97 Bu/A, the “Repetition 2 Weight” value [1, 27] was 4.4 Lbs and the “Repetition 2 Yield” value [1, 27] was 49.47 Bu/A. The “plant yield (in words)” value ([1]; Table 2a, 2,4-D mixture 1.0X-5.5X vs untreated) was “increases plant yield”, the “Yield (Bushels/acre at 13% moisture)” value [2, 28] was 58.3 Bushels/acre and the Harvested weight ([2]; 1X side dress (1X~0.19 lb a.e.), 12 rows) was 1292 g. For the same compound, the Percent of control [2, 28] was 110%, the “Yield (Bushels/acre at 13% moisture)” value [2, 29] was 68.3 Bushels/acre and the Harvested weight ([2]; 2X side dress (1X~0.19 lb a.e.), 8 rows) was 1016 g. For the same compound, the Percent of control [2, 29] was 130%, the “Yield (Bushels/acre at 13% moisture)” value [2, 30] was 62.8 Bushels/acre and the Harvested weight ([2]; 3X side dress (1X~0.19 lb a.e.), 16 rows) was 1844 g. For the same compound, the Percent of control [2, 30] was 120%, the “Yield (Bushels/acre at 13% moisture)” value [2, 31] was 70.8 Bushels/acre and the Harvested weight ([2]; 4X side dress (1X~0.19 lb a.e.), 16 rows) was 2088 g. The Percent of control [2, 31] was 135% and the “plant yield (in words)” value ([2]; side dress treatment 1X-4X vs untreated) was “greatly increases plant yield”.
